Data reported in PMC7415810, “A novel nucleolin-binding peptide for Cancer Theranostics” (Theranostics, 2020).

Legend:
MDA-MB-231-luc xenograft = test: Tumorigenesis experiment, MDA-MB-231-luc breast cancer xenograft
Procedure: All animal experiments were performed in accordance with IACUC guidelines (GIST-2019-040). For tumorigenesis experiments, anesthetized 6-week-old female NOD-scid Il2rg^-^/^- mice (NPG^TM, VITALSTAR) were inoculated in the mammary fat pad with 1 × 10^6 MDA-MB-231-luc cells in a 100 μl volume (n = 5 for each group). After tumor cell inoculation, when the tumor volume reached approximately 100 mm^3, the mice were randomly divided into the following five groups: (i) control, (ii) low-dose paclitaxel (2 mg/kg), (iii) high-dose paclitaxel (10 mg/kg), (iv) AGM-330 (16.68 mg/kg, molar equivalent to 2 mg/kg of PTX), and (v) AGM-330-PTX (19.05 mg/kg, molar equivalent to 2 mg/kg of PTX). The tumor size was measured twice a week, and the tumor volume was calculated with the following formula: volume (mm^3) = [length (mm)] × [width (mm)]^2 × 0.5. For the bioluminescent imaging experiment, D-luciferin (150 mg/kg; PerkinElmer) was intraperitoneally injected into each mouse, and an IVIS 100 imaging system (Xenogen, Corporation, Alameda, CA) was used for bioluminescent monitoring. Mice were anesthetized with vaporized isofurane (BK Pharm, Ilsan, Korea) and placed in an imaging chamber. After 10 min, each animal was imaged with an exposure time of 1 min. All bioluminescent image data were obtained using Living Image software (version 4.5.2, PerkinElmer). Photons detected from tumors were converted to average radiance values (photon/sec/cm^2/sr), which are quantitative data obtained from a region of […] (ROI) and include the photons emitted by bioluminescent cells from an assigned rectangular area over the whole body of each mouse.
A, Cell proliferation inhibition by AGM-330-PTX treatment was determined for 48 h by the WST assay in multiple breast and colorectal cancer cells and in normal cells. B, Schematic representation of the experimental protocol as described in the materials and methods section. Anesthetized 6‑week-old […] NPG mice were inoculated with a 1:1 mix of Matrigel and 1 × 10^6 MDA-MB-231-luc cells into the mammary fat pad. When the volume of primary tumors reached approximately 100 mm^3, tumor-bearing mice were treated with vehicle (PBS), PTX (2 or 10 mg/kg), AGM-330 (16.68 mg/kg, molar equivalent to 2 mg/kg of PTX), or AGM-330-PTX (19.05 mg/kg, molar equivalent to 2 mg/kg of PTX; n = 5/group). C-E, The therapeutic effect of AGM-330-PTX was evaluated in breast cancer xenograft models. C, Primary tumor volume was measured twice a week until the day of sacrifice. The primary tumor volume was calculated by the formula volume (mm^3) = (length (mm)) × (width (mm))^2 × 0.5. D, On the day of sacrifice, all primary tumors were isolated, and (E) the primary tumor weights were evaluated. F-I, Immunohistochemistry (IHC) sections of representative tumors with Ki-67 (F,H) and TUNEL (G,I) staining. Nuclei were stained with DAPI (blue). Scale bar, 50 µm. Bar graphs represent the mean ± SD, and statistical analyses were performed by one-way ANOVA with Dunnett's multiple comparison. *, **, and *** indicate P < 0.05, P < 0.01, and P < 0.001, respectively.
Following in vitro proliferation analysis on cancer lines, we investigated whether AGM-330-PTX could be a potential therapeutic agent in vivo. We inoculated MDA-MB-231-luc cells into the mammary fat pad of NPG mice. After the […] tumors grew to 100 mm^3, comparative efficacy studies were performed by dividing the animals into five groups (n = 5/group) treated with vehicle (PBS), PTX (2 or 10 mg/kg, respectively), AGM-330 (16.68 mg/kg, molar equivalent to 2 mg/kg of PTX), or AGM-330-PTX (19.05 mg/kg, molar equivalent to 2 mg/kg of PTX) twice a week by tail vein injection (Figure 5B). Tumor growth was monitored by measuring volumes twice a week with a caliber rule over the course of 3 weeks.
Figure S11. A-E, NPG TM mice bearing MDA-MB-231-luc tumors were treated twice a week for 21 days with […]

[1] = Release of PTX in vitro (linker hydrolysis) in human serum; format: in vitro ADME; conditions: 100 μM stock diluted 10-fold in 100% human serum, 37 °C, HPLC, triplicate
Procedure: (§1) Stock solutions of AGM-330-PTX (100 μM) were diluted 10-fold with pre-warmed 100% human serum (Sigma-Aldrich) or PBS and incubated at 37 °C for 0, 1, 2, 6 and 12 h. […] Each experiment was performed in triplicate.
(§2) Figure S10. A, B, Changes in the HPLC chromatogram of AGM-330-PTX after incubation with human serum (A) or PBS (B). C, D, MS spectra of AGM-330-PTX (C) and AGM-330 (D). E, Time-dependent fluorescence imaging of AGM-330-PTX-Rh in MDA-MB-231 cells. Cells were incubated with 5 μmol/l AGM-330-PTX-Rh. […]
(§3) bit secondary antibody coupled to Alexa Fluor 488. Cells were then fixed with 4 % paraformaldehyde, and the nuclei were stained with DAPI. MERGE represents a merged image of AGM-330, PTX, and nuclear staining by […]

[2] = Release of PTX in vitro (linker hydrolysis) in PBS; format: physicochemical; conditions: 100 μM stock diluted 10-fold in PBS, 37 °C, HPLC, triplicate
Procedure: as §1, §2, §3

MDA-MB-231 cells = test: Time-dependent binding/internalization of AGM-330-FITC, confocal microscopy; format: cell-based, human; conditions: 5 μmol/l, 37 °C, 1, 3, 6 and 12 h, confocal fluorescence
Procedure: We evaluated the specificity of AGM-330 to NCL with cell binding assays against different cell lines using fluorescence microscopy. The experiment was performed using multiple cancer cell lines, MCF-7, MDA-MB-231, HT-29, and HCT-116, and normal cell lines, MCF-10A, and CCD-18Co. The binding specificity was determined by confocal imaging after 1 h of incubation of the cells with 5 μmol/l AGM-330-FITC. The cells were incubated with DAPI to counterstain the nuclei (blue fluorescence). […] To evaluate the ability of AGM-330 to undergo NCL-mediated endocytosis, MDA-MB-231 cells were incubated with AGM-330-FITC at 37 °C for different times (1, 3, 6 and 12 h). […] As mentioned in a previous study, N6L is essentially built on a lysine-rich helicoid template formed by a repeat of 6 tripeptide units. […] Therefore, the difference in the molecular structure between AGM-330 and N6L may be caused by different endocytosis mechanisms. […] However, except for membrane NCL, we could not confirm the protein associated with internalization among the proteins bound to AGM-330 (Figure 2D). Taken together, N6L, which binds to both membrane NCL and nucleophosmin, induce apoptosis after internalization into nucleolus of cancer cells.
Figure S6. Time-dependent in vitro binding assay of AGM-330-FITC toward cancer cells. MDA-MB-231 cells were incubated with 5 μmol/l AGM-330-FITC for 1, 3, 6 and 12 h at 37 °C. […]

[3] = system: cancer cells (MCF-7, MDA-MB-231, HT-29, HCT-116); test: Flow cytometry binding of FITC-labeled peptide; format: cell-based, human; conditions: 1 × 10^5 cells, 2 h at 37 °C, serum-free medium
Procedure: (§4) Fluorescence-activated cell-sorting (FACS) analysis was used to check the binding of the FITC labeled peptides (FITC-peptide). The stock solution for the FITC-peptides (100 μM) was prepared by dissolving the peptide in PBS. MCF-10A, MCF-7, MDA-MB-231, CCD-18Co, HT-29, and HCT-116 cells were seeded in 6-well plates (10^5 cells/well) containing 3 ml of medium, and the plates were then incubated at 37 °C overnight. […] Thereafter, the medium was removed, and the cells were washed with cold PBS to remove any remaining peptide. Adequate trypsin/EDTA was added to each well, which was followed by a 3 ~ 5 min incubation at 37 °C. Trypsin/EDTA was immediately neutralized by adding medium, and the cell suspension was then transferred into centrifuge tubes. The cells were separated and washed twice with PBS. […] The prepared cells were analyzed on a FACScanto II (BD Biosciences, San Jose, CA, USA) flow cytometer, and the FACS data were analyzed using FlowJo (TreeStar, Ashland, OR, USA).
(§5) Next, to examine whether the MAP ligand can selectively bind to cancer cells, cancer cells treated with FITC-labeled AGM-330 (AGM-330-FITC) were compared with untreated cells. […] Then, the inherent fluorescence of peptide-treated cells were compared and measured based on changes in the mean fluorescence intensity (MFI) values compared to those of untreated cells (Figure 1D and E).

[4] = system: normal cells (MCF-10A, CCD-18Co); test: Flow cytometry binding of FITC-labeled peptide; format: cell-based, human; conditions: 1 × 10^5 cells, 2 h at 37 °C, serum-free medium
Procedure: as §4, §5

[5] = AGM-330-PTX treatment, xenograft

**Q.** Which average tumor volume (MDA-MB-231-luc xenograft; 19.05 mg/kg (molar equivalent to 2 mg/kg of PTX), tail vein twice a week, day 21, n = 5) does the source give for `CSCC[C@H](NC(=O)[C@H](C)NC(=O)CNC(=O)[C@H](Cc1c[nH]cn1)NC(=O)[C@@H](N)CCCNC(=N)N)C(=O)N[C@H](C(=O)N[C@@H](Cc1ccc(O)cc1)C(=O)N[C@@H](CC(C)C)C(=O)N[C@@H](CCCCN)C(=O)NCCOCCOCCOCCOCCOCCOCCOCCOCCOCCOCCOCCOCCC(=O)NCCCC[C@H](NC(=O)CCOCCOCCOCCOCCOCCOCCOCCOCCOCCOCCOCCOCCNC(=O)[C@H](CCCCN)NC(=O)[C@H](CC(C)C)NC(=O)[C@H](Cc1ccc(O)cc1)NC(=O)[C@@H](NC(=O)[C@H](CCSC)NC(=O)[C@H](C)NC(=O)CNC(=O)[C@H](Cc1c[nH]cn1)NC(=O)[C@@H](N)CCCNC(=N)N)C(C)C)C(=O)NCCCC[C@H](NC(=O)[C@H](CCCCNC(=O)CCOCCOCCOCCOCCOCCOCCOCCOCCOCCOCCOCCOCCNC(=O)[C@H](CCCCN)NC(=O)[C@H](CC(C)C)NC(=O)[C@H](Cc1ccc(O)cc1)NC(=O)[C@@H](NC(=O)[C@H](CCSC)NC(=O)[C@H](C)NC(=O)CNC(=O)[C@H](Cc1c[nH]cn1)NC(=O)[C@@H](N)CCCNC(=N)N)C(C)C)NC(=O)CCOCCOCCOCCOCCOCCOCCOCCOCCOCCOCCOCCOCCNC(=O)[C@H](CCCCN)NC(=O)[C@H](CC(C)C)NC(=O)[C@H](Cc1ccc(O)cc1)NC(=O)[C@@H](NC(=O)[C@H](CCSC)NC(=O)[C@H](C)NC(=O)CNC(=O)[C@H](Cc1c[nH]cn1)NC(=O)[C@@H](N)CCCNC(=N)N)C(C)C)C(=O)N[C@@H](CSC1CC(=O)N(CCC(=O)O[C@@H](C(=O)O[C@H]2C[C@@]3(O)[C@@H](OC(=O)c4ccccc4)[C@@H]4[C@]5(OC(C)=O)CO[C@@H]5C[C@H](O)[C@@]4(C)C(=O)[C@H](OC(C)=O)C(=C2C)C3(C)C)[C@@H](NC(=O)c2ccccc2)c2ccccc2)C1=O)C(=O)O)C(C)C` (stereo partly shown) [AGM-330-PTX] here?
**A.** Its average tumor volume is 807 ± 90 mm^3.

**Q.** And the “final average tumor weight” value (MDA-MB-231-luc xenograft; 19.05 mg/kg (molar equivalent to 2 mg/kg of PTX), tail vein twice a week, n = 5)?
**A.** The value was 1.3 ± 0.1 g.

**Q.** And the “blood chemistry analysis (ALB, GOT, GPT, TP-PS, UA in serum)” value (MDA-MB-231-luc xenograft; 19.05 mg/kg twice a week for 21 days, n = 5)?
**A.** Its value is “no adverse signs of toxicity”.

**Q.** What about the “mouse body weight versus vehicle (PBS)” value (MDA-MB-231-luc xenograft; 19.05 mg/kg twice a week, 3 weeks, n = 5) of the same compound?
**A.** The value was “not affected”.

**Q.** What about the “histology of excised tumors (H&E, Ki-67, TUNEL)” value (MDA-MB-231-luc xenograft; 19.05 mg/kg twice a week, excised tumors) of the same compound?
**A.** Its value is “a reduction in the number of cancerous cells and an increase in apoptotic cell nuclei”.

**Q.** And the “decrease of average tumor volume with respect to the same dose PTX” value (MDA-MB-231-luc xenograft; 19.05 mg/kg versus PTX 2 mg/kg, n = 5)?
**A.** Its value is “approximately 52%”.

**Q.** And the “decrease in tumor volume compared with the PBS-treated group” value (MDA-MB-231-luc xenograft; [5])?
**A.** The value was 63%.

**Q.** And the “decrease in tumor weight compared with the PBS-treated group” value (MDA-MB-231-luc xenograft; [5])?
**A.** Its value is 43%.

**Q.** What about the “hydrolysis of the propionic acid linker (release of PTX) in serum” value [1] of the same compound?
**A.** The value was “almost completely hydrolyzed after 2 h”.

**Q.** And the “hydrolysis of the propionic acid linker (release of PTX) in PBS” value [2]?
**A.** The value was “fully hydrolyzed in PBS after 12 h”.

**Q.** For “AGM-330-FITC (RHGAMVYLK; PEG12 after the C-terminal Lys of each RHGAMVYLK arm, joined to a trilysine core; FITC (by FITC-5-maleimide))”, which “cellular uptake / internalization” value (MDA-MB-231 cells) is on record?
**A.** Its value is “not taken up by the cytoplasm or nucleolus”.

**Q.** And the “binding to cancer cells (MFI relative to untreated cells)” value [3]?
**A.** Its value is “significant cancer cell binding”.

**Q.** What about the “binding to normal cells (MFI)” value [4] of the same compound?
**A.** Its value is “significant decrease in binding to normal cells”.
